By IC50 is commonly meant the point on the concentration scale where inhibition reaches its midpoint. Read a high IC50 as a need for much substance.

Chain of activated p38 (Q16539 whole entry): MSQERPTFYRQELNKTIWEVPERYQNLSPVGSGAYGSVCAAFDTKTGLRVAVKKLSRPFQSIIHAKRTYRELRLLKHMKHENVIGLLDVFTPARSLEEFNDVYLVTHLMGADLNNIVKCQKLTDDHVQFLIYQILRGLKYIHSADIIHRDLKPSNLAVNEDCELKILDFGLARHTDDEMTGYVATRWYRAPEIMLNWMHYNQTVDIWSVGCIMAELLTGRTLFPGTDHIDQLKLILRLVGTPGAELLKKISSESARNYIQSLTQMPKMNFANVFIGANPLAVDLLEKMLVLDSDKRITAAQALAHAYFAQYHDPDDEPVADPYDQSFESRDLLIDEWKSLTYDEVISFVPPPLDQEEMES

This experiment addresses activated p38 (Homo sapiens, UniProt Q16539). As to the kind of experiment: Inhibition of phosphorylation of EGF receptor peptide ("kinase"). It counts as biochemical. As to conditions: inhibition of phosphorylation of EGF receptor peptide by activated p38. The method, then: This assay was carried out in the presence of 10 mM MgCl2, 25 mM β-glycerophosphate, 10% glycerol and 100 mM HEPES buffer at pH 7.6. […] The stock solution was aliquotted into vials. A fixed volume of DMSO or inhibitor in DMSO (final concentration of DMSO in reaction was 5%) was introduced to each vial, mixed and incubated for 15 minutes at room temperature. EGF receptor peptide, […], a phosphoryl acceptor in p38-catalyzed kinase reaction (1), was added to each vial to a final concentration of 200 μM. The kinase reaction was initiated with ATP (100 μM) and the vials were incubated at 30° C. After 30 minutes, the reactions were quenched with equal volume of 10% trifluoroacetic acid (TFA).
The phosphorylated peptide was quantified by HPLC analysis. Separation of phosphorylated peptide from the unphosphorylated peptide was achieved on a reverse phase column (Deltapak, 5 μm, C18 100D, part no. 011795) with a binary gradient of water and acteonitrile, each containing 0.1% TFA.
The compound `COc1ccc(-c2c(=O)ncn3nc(Sc4ccccc4)ccc23)cc1` [Compound 10] showed an IC50 of at least 1000 nM.

Turning to `Nc1ccc(F)c(-c2c(=O)ncn3nc(Sc4ccc(F)cc4)ccc23)c1Cl` [Compound 42], the concentration for half-maximal inhibition (IC50) was at least 1000 nM.

The compound `O=c1ncn2nc(Sc3ccc(F)cc3Cl)ccc2c1-c1cc2c(cc1Cl)OCO2` [Compound 45] registered an IC50 of 100 to 1000 nM.

With `CN(C)/C=N\c1ccc(-c2c(=O)ncn3nc(Sc4ccc(F)cc4)ccc23)c(Cl)c1` [Compound 50], the IC50 is at least 1000 nM.

As for `CC(=O)Nc1ccc(-c2c(=O)ncn3nc(Sc4ccc(F)cc4)ccc23)c(Cl)c1` [Compound 51], the IC50 was in the range of 100 to 1000 nM.

`O=C(CN1CCOCC1)Nc1ccc(-c2c(=O)ncn3nc(Sc4ccc(F)cc4)ccc23)c(Cl)c1` [Compound 52] yielded a half-inhibitory concentration (IC50) of 100 to 1000 nM.

For the compound `Nc1cc(F)c(F)cc1SC1=NN2CNC(=O)C(c3c(Cl)cccc3Cl)=C2C=C1` [Compound 119], the IC50 lay within 100 to 1000 nM.

For the compound `NC(=O)C(c1ccc(Sc2ccccc2)nn1)c1ccc(Cl)cc1Cl` (centres unmarked) [Compound 203], the IC50 is at least 1000 nM.

The compound `NC(=O)C(c1ccc(F)cc1)c1ccc(Sc2ccccc2)nn1` (centres unmarked) [Compound 204] came in with an IC50 of at least 1000 nM.

As to `Cc1ccc(Sc2ccc(C(C(N)=O)c3ccc(Cl)cc3Cl)nn2)cc1` (centres unmarked) [Compound 205], the IC50 was at least 1000 nM.

Regarding `NC(=O)C(c1ccc(Sc2ccc(F)cc2Cl)nn1)c1ccc(N)cc1Cl` (centres unmarked) [Compound 207], the IC50 is at least 1000 nM.

Take `NC(=O)C(c1cccc(-c2cccc([N+](=O)[O-])c2)n1)c1c(Cl)cccc1Cl` (centres unmarked) [Compound 308]: the IC50 is at least 1000 nM.

On to `CSc1ccc(-c2cccc(C(C(N)=O)c3c(Cl)cccc3Cl)n2)cc1` (centres unmarked) [Compound 314], for which the IC50 is at least 1000 nM.

The compound `NC(=O)C(c1cccc(-c2ccc(C(=O)O)cc2)n1)c1c(Cl)cccc1Cl` (centres unmarked) [Compound 315] showed an IC50 of at least 1000 nM.

Consider `NC(=O)C(c1cccc(-c2ccc(C=O)cc2)n1)c1c(Cl)cccc1Cl` (centres unmarked) [Compound 316], for which the IC50 is at least 1000 nM.

With `NC(=O)C(c1cccc(-c2ccsc2)n1)c1c(Cl)cccc1Cl` (centres unmarked) [Compound 318], the IC50 was 100 to 1000 nM.

With `NC(=O)C(c1cccc(-c2ccc(C(F)(F)F)cc2)n1)c1c(Cl)cccc1Cl` (centres unmarked) [Compound 319], the IC50 is at least 1000 nM.

`NC(=O)C(c1cccc(-c2cccc(C=O)c2)n1)c1c(Cl)cccc1Cl` (centres unmarked) [Compound 321] came in with an IC50 of at least 1000 nM.

On to `NC(=O)C(c1cccc(-c2ccc(Cl)s2)n1)c1c(Cl)cccc1Cl` (centres unmarked) [Compound 326], for which the IC50 is at least 1000 nM.

`NC(=O)C(c1cccc(-c2ccccc2C=O)n1)c1c(Cl)cccc1Cl` (centres unmarked) [Compound 327]: the IC50 fell in the range of 100 to 1000 nM.

Compound `NC(=O)C(c1cccc(-c2cccc([N+](=O)[O-])c2)n1)c1c(F)cccc1Cl` (centres unmarked) [Compound 328] displayed an IC50 of at least 1000 nM.

Regarding `NC(=O)C(c1cccc(-c2ccc(Cl)cc2)n1)c1c(F)cccc1Cl` (centres unmarked) [Compound 330], the IC50 was at least 1000 nM.

`Cc1ccc(-c2cccc(C(C(N)=O)c3c(F)cccc3Cl)n2)cc1` (centres unmarked) [Compound 331] yielded an IC50 of at least 1000 nM.

Take `CSc1ccc(-c2cccc(C(C(N)=O)c3c(F)cccc3Cl)n2)cc1` (centres unmarked) [Compound 334]: the IC50 was at least 1000 nM.

The compound `NC(=O)C(c1cccc(-c2ccc(C(=O)O)cc2)n1)c1c(F)cccc1Cl` (centres unmarked) [Compound 336] registered an IC50 of at least 1000 nM.

The compound `NC(=O)C(c1cccc(-c2ccc(C=O)cc2)n1)c1c(F)cccc1Cl` (centres unmarked) [Compound 337] gave an IC50 of at least 1000 nM.

Consider `NC(=O)C(c1cccc(-c2cccs2)n1)c1c(F)cccc1Cl` (centres unmarked) [Compound 338], for which the half-inhibitory concentration (IC50) was at least 1000 nM.

In turn, `NC(=O)C(c1cccc(-c2ccsc2)n1)c1c(F)cccc1Cl` (centres unmarked) [Compound 339] showed an IC50 of at least 1000 nM.

Turning to `NC(=O)C(c1cccc(-c2ccc(C(F)(F)F)cc2)n1)c1c(F)cccc1Cl` (centres unmarked) [Compound 340], the IC50 was at least 1000 nM.

For `NC(=O)C(c1cccc(-c2cccc(C=O)c2)n1)c1c(F)cccc1Cl` (centres unmarked) [Compound 342], the IC50 was at least 1000 nM.

Consider `COc1cccc(-c2cccc(C(C(N)=O)c3c(F)cccc3Cl)n2)c1` (centres unmarked) [Compound 343], for which the IC50 is at least 1000 nM.

As to `NC(=O)C(c1cccc(-c2cccc(F)c2)n1)c1c(F)cccc1Cl` (centres unmarked) [Compound 344], the IC50 was at least 1000 nM.

For the compound `COc1ccccc1-c1cccc(C(C(N)=O)c2c(F)cccc2Cl)n1` (centres unmarked) [Compound 345], the IC50 was at least 1000 nM.

For the compound `NC(=O)C(c1cccc(-c2ccc(Cl)s2)n1)c1c(F)cccc1Cl` (centres unmarked) [Compound 347], the IC50 is at least 1000 nM.

`NC(=O)C(c1cccc(-c2ccccc2C=O)n1)c1c(F)cccc1Cl` (centres unmarked) [Compound 348] yielded an IC50 of at least 1000 nM.

As for `NC(=O)C(c1cccc(-c2ccc3ccccc3c2)n1)c1c(Cl)cccc1Cl` (centres unmarked) [Compound 354], the IC50 is at least 1000 nM.

`NC(=O)C(c1cccc(-c2cc3ccccc3o2)n1)c1c(Cl)cccc1Cl` (centres unmarked) [Compound 355]: the IC50 is at least 1000 nM.

`NC(=O)C(c1cccc(-c2cc3ccccc3s2)n1)c1c(Cl)cccc1Cl` (centres unmarked) [Compound 356]: the IC50 was at least 1000 nM.

Consider `NC(=O)C(c1cccc(-c2occc2C=O)n1)c1c(F)cccc1Cl` (centres unmarked) [Compound 357], for which the IC50 was at least 1000 nM.

`NCCNCc1ccccc1-c1cccc(C(C(N)=O)c2c(Cl)cccc2Cl)n1` (centres unmarked) [Compound 359] yielded an IC50 of at least 1000 nM.

In turn, `NC(=O)C(c1cccc(-c2ccccc2CNCC(O)CO)n1)c1c(Cl)cccc1Cl` (centres unmarked) [Compound 360] registered an IC50 of at least 1000 nM.

Regarding `NC(=O)C(c1cccc(-c2ccccc2)n1)c1c(F)cccc1F` (centres unmarked) [Compound 366], the IC50 is at least 1000 nM.

Compound `NC(=O)C(c1cccc(-c2ccccc2C(F)(F)F)n1)c1c(Cl)cccc1Cl` (centres unmarked) [Compound 374] yielded an IC50 of 100 to 1000 nM.

`NC(=O)C(c1cccc(-c2ccccc2Cl)n1)c1c(Cl)cccc1Cl` (centres unmarked) [Compound 375] gave an IC50 of at most 100 nM.

Take `Cc1cccc(-c2cccc(C(C(N)=O)c3c(Cl)cccc3Cl)n2)c1C` (centres unmarked) [Compound 376]: the IC50 is at most 100 nM.

Consider `CCc1ccccc1-c1cccc(C(C(N)=O)c2c(Cl)cccc2Cl)n1` (centres unmarked) [Compound 377], for which the IC50 was at most 100 nM.

For the compound `NC(=O)C(c1cccc(-c2ccccc2CCO)n1)c1c(Cl)cccc1Cl` (centres unmarked) [Compound 378], the IC50 was at most 100 nM.

The compound `NC(=O)C(c1cccc(-c2cccc(C(F)(F)F)c2)n1)c1c(Cl)cccc1Cl` (centres unmarked) [Compound 379] came in with a concentration for half-maximal inhibition (IC50) of at most 100 nM.

Regarding `NC(=O)C(c1cccc(-c2cccc(CO)c2)n1)c1c(Cl)cccc1Cl` (centres unmarked) [Compound 380], the IC50 fell in the range of 100 to 1000 nM.

`Cc1cccc(C)c1C(C(N)=O)c1cccc(-c2ccccc2)n1` (centres unmarked) [Compound 381]: the IC50 is 100 to 1000 nM.

The compound `NC(=O)C(c1cccc(-c2cccc(Cl)c2Cl)n1)c1c(Cl)cccc1Cl` (centres unmarked) [Compound 382] showed an IC50 of at most 100 nM.

In turn, `NC(=O)C(c1cccc(-c2ccccc2F)n1)c1c(Cl)cccc1Cl` (centres unmarked) [Compound 383] displayed an IC50 of at most 100 nM.

`NC(=O)C(c1cncc(-c2ccccc2)n1)c1c(Cl)cccc1Cl` (centres unmarked) [Compound 384] returned an IC50 of 100 to 1000 nM.

Take `COCOc1ccccc1-c1cccc(C(C(N)=O)c2c(Cl)cccc2Cl)n1` (centres unmarked) [Compound 385]: the IC50 lay in the range of 100 to 1000 nM.

Regarding `NC(=O)C(c1cccc(-c2ccccc2O)n1)c1c(Cl)cccc1Cl` (centres unmarked) [Compound 386], the IC50 is at least 1000 nM.

As to `NC(=O)C(c1cccc(-c2cc(C(F)(F)F)cc(C(F)(F)F)c2)n1)c1c(Cl)cccc1Cl` (centres unmarked) [Compound 387], the IC50 was at least 1000 nM.

On to `NC(=O)C(c1cccc(-c2cc(F)c(F)c(F)c2)n1)c1c(Cl)cccc1Cl` (centres unmarked) [Compound 388], for which the IC50 was at most 100 nM.

For the compound `COCOc1cc(F)ccc1-c1cccc(C(C(N)=O)c2c(Cl)cccc2Cl)n1` (centres unmarked) [Compound 389], the IC50 is 100 to 1000 nM.

`NC(=O)C(c1cccc(-c2ccc(F)cc2O)n1)c1c(Cl)cccc1Cl` (centres unmarked) [Compound 390] yielded an IC50 of at least 1000 nM.

The compound `NC(=O)C(c1cccc(-c2ccc(F)cc2C(F)(F)F)n1)c1c(Cl)cccc1Cl` (centres unmarked) [Compound 391] yielded an IC50 of 100 to 1000 nM.

In turn, `NC(=O)C(c1cccc(-c2cc(Cl)cc(Cl)c2)n1)c1c(Cl)cccc1Cl` (centres unmarked) [Compound 392] came in with an IC50 of 100 to 1000 nM.

`COCOCc1cc(F)ccc1-c1cccc(C(C(N)=O)c2c(Cl)cccc2Cl)n1` (centres unmarked) [Compound 393] registered an IC50 of 100 to 1000 nM.

Turning to `NC(=O)C(c1cccc(-c2ccc(F)cc2CO)n1)c1c(Cl)cccc1Cl` (centres unmarked) [Compound 394], the IC50 was at most 100 nM.

The compound `Cc1cc(-c2cccc(C(C(N)=O)c3c(Cl)cccc3Cl)n2)ccc1F` (centres unmarked) [Compound 395] yielded an IC50 of at most 100 nM.

Consider `NC(=O)C(c1cccc(-c2ccc(F)cc2F)n1)c1c(Cl)cccc1Cl` (centres unmarked) [Compound 396], for which the IC50 was at most 100 nM.

Take `NC(=O)C(c1cccc(-c2ccccc2)n1)c1cc2c(cc1Cl)OCO2` (centres unmarked) [Compound 397]: the IC50 was at least 1000 nM.

In turn, `NC(=O)C(c1cccc(-c2c(F)cc(F)cc2F)n1)c1c(Cl)cccc1Cl` (centres unmarked) [Compound 399] gave an IC50 of at most 100 nM.

`Cc1c(Cl)cccc1-c1cccc(C(C(N)=O)c2c(Cl)cccc2Cl)n1` (centres unmarked) [Compound 1301] returned an IC50 of at most 100 nM.

The values above are taken from patent US7205305B2, “Inhibitors of p38” (Vertex Pharmaceuticals Incorporated, priority 1996, dated 2007).
